Data from paper PMC5882934, “Acute metabolic actions of the major polyphenols in chamomile: an in vitro mechanistic study on their potential to attenuate postprandial hyperglycaemia” (Scientific Reports, 2018).
Converted amounts (≈) assume the structure as drawn. Where two headings read alike, the source gives them in different places. One block for each compound: values may come before it.

Key:
GLUT2 = target: T1, GLUT2 (Homo sapiens, UniProt P11168); assay: D-[U-14C]-glucose transport across Caco-2/TC7 monolayers under Na+-free conditions (only GLUT2 active); type: cell-based; settings: for apparent increase in inhibitory activity under Na+-free conditions: versus Na+ present
T1 construct: endogenous in cells; host or cells: Caco-2/TC7
T1 sequence (P11168 1-524): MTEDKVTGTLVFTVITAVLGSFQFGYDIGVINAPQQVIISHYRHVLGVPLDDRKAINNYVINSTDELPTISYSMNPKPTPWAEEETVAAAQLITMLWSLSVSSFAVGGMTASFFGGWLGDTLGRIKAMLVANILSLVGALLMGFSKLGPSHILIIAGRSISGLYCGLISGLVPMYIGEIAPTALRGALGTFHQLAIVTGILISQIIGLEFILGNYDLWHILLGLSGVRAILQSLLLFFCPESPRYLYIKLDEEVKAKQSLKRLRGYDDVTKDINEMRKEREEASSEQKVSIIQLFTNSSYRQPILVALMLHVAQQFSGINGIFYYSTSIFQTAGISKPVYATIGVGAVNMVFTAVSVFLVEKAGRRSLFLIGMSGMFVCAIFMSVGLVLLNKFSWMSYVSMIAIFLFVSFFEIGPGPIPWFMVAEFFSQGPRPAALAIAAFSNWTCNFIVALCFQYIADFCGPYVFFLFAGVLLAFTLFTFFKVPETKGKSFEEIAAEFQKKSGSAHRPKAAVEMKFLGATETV
Description: To dissect the mechanism of inhibition of glucose transport, we conducted D-[U-^14C]-glucose transport experiments under Na^+-free conditions where only GLUT2, and not SGLT1, is active. […] When tested in combination under Na^+-free conditions, apigenin 7-O-glucoside and apigenin (Fig. 6C-3) were responsible for ~80% of the inhibitory activity observed by the whole ChE (p < 0.05) (Fig. 6C-4).
Since the main inhibition we found was on GLUT2, we investigated the binding affinities of apigenin and apigenin 7-O-glucoside. […] This was also confirmed by functional assays where the rate of D-[U-^14C]-glucose transport under Na^+-free conditions was the same from apical to basolateral compartments and vice versa (Fig. 7B). Inhibition constants for the exofacial glucose transporter inhibitor 4,6-O-ethylidene glucose and the endofacial glucose transporter inhibitor cytochalasin B on basolateral to apical D-[U-^14C]-glucose transport were compared to those for apigenin and apigenin 7-O-glucoside (Fig. 7C–E). […] This comparison is made assuming that the position of GLUT2 is the same when facing the apical and the intracellular space, which seems to hold based on the rate of D-[U-^14C]-glucose transport across the monolayers in both directions.
(§1) Caco-2/TC7 cells were cultured and transport experiments performed as fully described before.

human α-amylase [1] = target: T2, human α-amylase (Homo sapiens, UniProt P0DUB6); assay: human α-amylase inhibition assay; type: biochemical; settings: for maximum inhibition of human α-amylase: individual (poly)phenol, maximum value of dose response, p < 0.05; for Ki: Dixon plot, intercept = -Ki
T2 sequence (P0DUB6 16-511): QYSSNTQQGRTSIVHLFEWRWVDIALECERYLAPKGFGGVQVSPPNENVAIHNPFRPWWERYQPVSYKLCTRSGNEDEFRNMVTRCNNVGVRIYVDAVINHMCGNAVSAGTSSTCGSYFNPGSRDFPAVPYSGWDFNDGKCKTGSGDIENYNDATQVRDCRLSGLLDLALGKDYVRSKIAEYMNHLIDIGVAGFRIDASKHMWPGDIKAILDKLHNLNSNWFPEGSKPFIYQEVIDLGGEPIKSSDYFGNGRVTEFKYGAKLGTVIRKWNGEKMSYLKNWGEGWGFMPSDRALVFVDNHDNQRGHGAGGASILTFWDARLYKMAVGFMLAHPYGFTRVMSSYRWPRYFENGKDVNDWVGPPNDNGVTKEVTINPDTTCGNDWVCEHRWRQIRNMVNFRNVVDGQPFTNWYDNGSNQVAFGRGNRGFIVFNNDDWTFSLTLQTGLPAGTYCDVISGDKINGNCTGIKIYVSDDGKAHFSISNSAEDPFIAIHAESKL
Protocol: The human α-amylase and rat α-glucosidase inhibition assays were performed under optimised conditions as previously reported[3],[18],[52]. The ChE stock solution was dissolved in DMSO while the individual (poly)phenols were prepared in a water-EtOH solution (50:50, v/v).

Caco-2/TC7 cells [2] = assay: D-[U-14C]-glucose transport across Caco-2/TC7 cell monolayers in the presence of Na+; type: cell-based; settings: for effect on D-[U-14C]-glucose transport: data not shown
Description: (§2) Caco-2/TC7 cells transported 0.08 mmol of D-[U-^14C]-glucose from the apical to the basolateral compartment across the cell monolayers in the presence of Na^+, where the sugar transporter Na^+/glucose co-transporter 1 (SGLT1) is active, in addition to the facilitated transporters GLUT2 and GLUT5 (Fig. 6A-1). D-[U-^14C]-sucrose must first be hydrolysed by brush border sucrase and the resulting products, fructose and glucose, are transported into and across the cells.
as §1

Caco-2/TC7 cells [3] = assay: D-[U-14C]-sucrose transport across Caco-2/TC7 cell monolayers; type: cell-based; settings: data not shown
Description: as §2, §1

Caco-2/TC7 cells [4] = assay: D-[U-14C]-fructose transport across Caco-2/TC7 cell monolayers; type: cell-based; settings: data not shown
Description: as §2, §1

[5] = enzymatic hydrolysis by digestive hydrolytic enzymes (hesperidinase, acetone rat intestinal extract); type: in vitro ADME
Protocol: Supplementary S3. Enzymatic hydrolysis of Kaempferol 3-O-glucoside (positive control) and (E)-MCAG. (A) Kaempferol 3-O-glucoside standard (300 µM). (B) Kaempferol standard (100 uM). (C) Kaempferol 3-O-glucoside hydrolysed with hesperidinase. (D) Kaempferol 3-O-glucoside hydrolysed with acetone rat intestinal extract. (E) Kaempferol 3-O-glucoside hydrolysed with pancreatin. (F) (E)-MCAG (500 µM) hydrolysed with hesperidinase. (G) (E)-MCAG (500 µM) hydrolysed hydrolysed with acetone rat intestinal extract. The enzymatic hydrolysis were conducted with 50 mg/mL of the respective enzyme for 3 h at 37 °C.

human α-amylase [6] = target: T2, human α-amylase; set-up: method as in doi:10.1016/j.jff.2015.10.003; settings: strong (poly)phenol inhibitors, arbitrarily defined; cited from earlier work
[7] = set-up: method as in PMID 12086760, PMID 12876091; settings: population with impaired glucose tolerance; cited from earlier work
Caco-2/TC7 cells [8] = assay: conversion of apigenin 7-O-glucoside to apigenin by differentiated Caco-2/TC7 cells; type: in vitro ADME; settings: 150 µM, 25 and 60 min
Protocol: Glycosylated (poly)phenols can be hydrolysed by luminal β-glucosidase enzymes, such as lactase phlorizin hydrolase[19],[20], present in the brush border of the enterocytes, resulting in the release of the aglycone. Therefore, we explored the possibility whether the inhibition observed by apigenin-7-O-glucoside was due to the presence of apigenin after enzymic hydrolysis. Caco-2/TC7 cells were incubated with 150 µM apigenin 7-O-glucoside for 25 and 60 min. In vitro conversion of apigenin 7-O-glucoside to apigenin in Caco2/TC7 cells was negligible (Supplementary S5) confirming that apigenin 7-O-glucoside can interact directly with GLUT2 transporter protein.
Cells were seeded at 2.4 × 10^5 cells/well on 6-well plates (Corning, Appleton Woods, UK) and cultured for 21–23 d at 37 °C as described above. Cells were exposed to 150 μM of apigenin 7-O-glucoside for 25 and 60 min. After the treatment the medium was collected and analysed by HPLC as detailed above.

yeast α-glucosidase = settings: cited from earlier work
[9] = tested on: rat intestinal α-glucosidase; set-up: method as in PMID 28422509; settings: p-nitrophenyl-glucopyranoside substrate; cited from earlier work
[10] = solubility limit in enzyme assay; type: physicochemical
GLUT1 [11] = tested on: GLUT1; set-up: method as in PMID 26238658; settings: cited from earlier work
GLUT1 [12] = tested on: GLUT1; set-up: method as in PMID 24932809; settings: cited from earlier work
maltase-glucoamylase = target: maltase-glucoamylase; set-up: method as in PMID 18681440; settings: cited from earlier work
sucrase-isomaltase = target: sucrase-isomaltase; set-up: method as in PMID 18681440; settings: cited from earlier work

fold lower inhibition of transport basolateral to apical versus apical to basolateral (GLUT2; Na+-free): 3 fold | IC50 (GLUT2; Na+-free, apical to basolateral, read-out: a → b IC50): 15000 µM
SMILES: CC1OC[C@H]2O[C@H](O)[C@H](O)[C@@H](O)[C@@H]2O1 (some centres unmarked) [4,6-ethylidine glucose, 4,6-O-ethylidene glucose, reference compound]

maximum inhibition of human α-amylase (human α-amylase [1]): ~ 20% | substrate for rat intestinal enzymes [5]: not a substrate | resistance to digestive hydrolytic enzymes ([5]; 500 µM, 50 mg/mL enzyme, 3 h at 37 °C): resistant
SMILES: COc1ccc(/C=C/C(=O)O)c(O[C@@H]2O[C@H](CO)[C@@H](O)[C@H](O)[C@H]2O)c1 [(E)-MCAG, (E)−2-β-D-Glucopyranosyloxy-4-methoxycinnamic acid]
effect on D-[U-14C]-glucose transport (Caco-2/TC7 cells [2]): no effect | effect on D-[U-14C]-sucrose transport (Caco-2/TC7 cells [3]): no effect | effect on D-[U-14C]-fructose transport (Caco-2/TC7 cells [4]): no effect

maximum inhibition of human α-amylase (human α-amylase [1]): ~ 25%
SMILES: COc1ccc(/C=C\C(=O)O)c(OC2O[C@H](CO)[C@@H](O)[C@H](O)[C@H]2O)c1 (stereo partly drawn) [(Z)-MCAG, (Z)-2-D-Glucopyranosyloxy-4-methoxycinnamic acid]
effect on D-[U-14C]-glucose transport (Caco-2/TC7 cells [2]): no effect | effect on D-[U-14C]-sucrose transport (Caco-2/TC7 cells [3]): no effect | effect on D-[U-14C]-fructose transport (Caco-2/TC7 cells [4]): no effect

SMILES: C=C1[C@@H](C)[C@H]2[C@H](Cc3ccccc3)NC(=O)[C@]23OC(=O)/C=C/[C@H](O)CCC[C@@H](C)C/C=C/[C@H]3[C@@H]1O [Cytochalasin B, cytochalasin B, reference compound]
IC50 (GLUT2; a → b IC50, Na+-free, apical to basolateral): 2.3 µM | IC50 (GLUT2; b → a IC50, Na+-free, basolateral to apical): 7.6 µM

SMILES: O=C(O[C@@H]1Cc2c(O)cc(O)cc2O[C@@H]1c1cc(O)c(O)c(O)c1)c1cc(O)c(O)c(O)c1 [EGCG]
IC50 (human α-amylase [6]): < 100 µM

SMILES: C[C@H]1O[C@H](O[C@H]2[C@H](O)[C@@H](O)[C@@H](O[C@H]3[C@H](O)[C@@H](O)C(O)O[C@@H]3CO)O[C@@H]2CO)[C@H](O)[C@@H](O)[C@@H]1N[C@H]1C=C(CO)[C@@H](O)[C@H](O)[C@H]1O (some centres unmarked) [acarbose]
reduction of the risk of cardiovascular events [7]: 49% | reduction of the risk of type 2 diabetes [7]: 25%

Ki (human α-amylase [1]): 17 ± 4 µM | fold lower inhibition of human α-amylase than apigenin (human α-amylase [1]; in vitro results): ~ 10 fold | fold lower inhibition of transport basolateral to apical versus apical to basolateral (GLUT2; Na+-free): 3 fold | apparent increase in inhibitory activity under Na+-free conditions (GLUT2): ~ 50% | in vitro conversion to apigenin (Caco-2/TC7 cells [8]): negligible
SMILES: O=c1cc(-c2ccc(O)cc2)oc2cc(O[C@@H]3O[C@H](CO)[C@@H](O)[C@H](O)[C@H]3O)cc(O)c12 [apigenin 7-O-glucoside, apigenin-7-O-glucoside]
IC50 yeast α-glucosidase (yeast α-glucosidase): 29.7 µg/mL (≈ 68.7 µM) | inhibition of rat intestinal α-glucosidase activity [9]: inhibited

fold increase in inhibitory activity on human α-amylase versus apigenin 7-O-glucoside (human α-amylase [1]): ~ 10 fold | Ki (human α-amylase [1]): 146 ± 39 µM | fold lower inhibition of transport basolateral to apical versus apical to basolateral (GLUT2; Na+-free): 3 fold | apparent increase in inhibitory activity under Na+-free conditions (GLUT2): ~ 50%
SMILES: O=c1cc(-c2ccc(O)cc2)oc2cc(O)cc(O)c12 [apigenin]
fold higher effect than apigenin 7-O-glucoside at equivalent concentrations (Caco-2/TC7 cells [2]; D-[U-14C]-glucose and D-[U-14C]-sucrose transport, apigenin 50 µM): 3 fold | solubility [10]: limited solubility prohibited testing at concentrations >50 µM | IC50 (yeast α-glucosidase): 22 µM | IC50 yeast α-glucosidase (yeast α-glucosidase): 25.5 µg/mL (≈ 94.4 µM) | inhibition of yeast α-glucosidase (yeast α-glucosidase; p-nitrophenyl-glucopyranoside substrate): did not inhibit | GLUT1 expression (GLUT1 [11]): lowered | GLUT1 expression (GLUT1 [12]): lowered

SMILES: O=c1ccc2cc(O)c(O)cc2o1 [esculetin]
IC50 (maltase-glucoamylase): 534 µM | IC50 (sucrase-isomaltase): 72 µM

SMILES: O=c1cc(-c2ccc(O)c(O)c2)oc2cc(O)cc(O)c12 [luteolin]
IC50 (human α-amylase [6]): < 100 µM

SMILES: O=c1c(O)c(-c2ccc(O)c(O)c2)oc2cc(O)cc(O)c12 [quercetin]
IC50 (human α-amylase [6]): < 100 µM | IC50 (maltase-glucoamylase): 216 µM | IC50 (sucrase-isomaltase): 71 µM
